Compound	melting point
O=Cc1cc(-n2cnnn2)cc2ccoc12	174 to 175 °C
CC(C(=O)NC1CCCCC1)N1CCN(c2ccccn2)CC1 (stereo not given)	126 to 128 °C
C=CCc1cc(C(=O)c2ccnn2C)c(Cl)c(Cl)c1O	141 to 143 °C
CCCCCCCCCCCCC(=O)c1noc(CCCCCCCCCCCC)c1[N+](=O)[O-]	60 to 62 °C
Cc1ccc(C2N=C(c3ccccc3)NC3=C2CCc2c(-c4ccccc4)cc(-c4ccccc4)nc23)cc1 (stereo not given)	128 to 133 °C
O=C1C(=O)N2CCCc3cccc1c32	199 °C
COC(=O)C(=O)c1cc(F)c(OCCOc2ccc3ccccc3c2)c(F)c1	114 to 115 °C
CC(C)(C)OC(=O)N1CCN2C(=O)N(c3cc(Cl)cc(Cl)c3)C(=O)C2(Cc2ccc(Br)cc2)C1 (stereo not given)	79.5 °C
Nc1cccc(-c2ccc(CCNCCCCCc3ccccc3)cc2)n1	60 to 70 °C
S=C1NC(c2ccc(Cl)cc2)c2ccccc2C1CCN1CCOCC1 (stereo not given)	228 to 231 °C
CCCCCCN=C=O	68 to 72 °C
CCOC(=O)Nc1cc(C(=O)OC)c(O)c2ncc(Cc3ccc(F)cc3)cc12	205 to 206 °C
CCCCCCCCCc1ccc(C(=O)CCCCC(=O)O)cc1	29 to 31 °C
NC(=S)NN=C(CCCCl)c1ccc(O)cc1	126 to 129 °C
CN1C(=O)C(c2cccc(-c3cncnc3)c2)(c2cc(C#N)n(C)c2)N=C1N (stereo not given)	214 to 225 °C
O=C(O)CCc1cn(Cc2ccc(OCc3csc(-c4ccncc4)n3)cc2)cc1-c1ccccc1	149 to 150 °C
COc1cccc2c1CC(C(=O)NCCOc1ccc(C(=O)O)cc1)N2S(=O)(=O)c1ccc(-c2ccc(F)cc2)cc1 (stereo not given)	113 °C
CC(C)(C)C1C(=O)NN=C2CCCCC21 (stereo not given)	161 to 164 °C
OCc1nnc2n1-c1ccc(Cl)cc1C(c1ccccc1)=NC2	204 to 206 °C
CCC(CC(=O)NC(=O)OC(C)(C)C)Nc1ccccc1 (stereo not given)	105 to 106 °C
C=CNC(=O)C(C)(Cc1ccccc1)S(=O)(=O)CCCl (stereo not given)	107 to 108 °C
Cc1cc(O)c(SC(C)(C)C)c(=O)o1	108 to 112 °C
CCCOc1ccc(CN2CCOCC2)cc1-c1nc2c(CCC)nn(C)c2c(=O)[nH]1	106 to 107 °C
COC(=O)C(CCCCNC(=O)OCc1ccccc1)NC(=O)CCC(C)C1CCC2C3C(O)CC4CC(O)CCC4(C)C3CC(O)C12C (stereo not given)	80 to 83 °C
CCCCN(CCCC)c1ccc(C=Cc2ccc(C(C#N)=c3ccc(=C(C#N)C#N)cc3)s2)c(OC)c1	211 to 214 °C
Cc1cc(C(=O)NCCO)ncc1C(c1cc(F)ccc1F)S(=O)(=O)c1ccc(F)cc1 (stereo not given)	153 to 154 °C
CS(=O)(=O)c1ccc(-c2cnn(CC(F)(F)F)c(=O)c2NC2CCc3ccccc32)cc1 (stereo not given)	155 to 158 °C

Compound	melting point
COc1ccc(-c2ccc(OC3SCC(OC(C)=O)C(OC(C)=O)C3OC(C)=O)cn2)cc1 (stereo not given)	208 °C
Cc1c(=O)n(Cc2ccccc2)c(=O)n2cc(C(=O)NCc3ccccc3)sc12	176 to 178 °C
O=C(O)CON=CCCl	66 to 68 °C
O=c1cc(C(F)(F)F)[nH]c(=O)n1-c1cc([N+](=O)[O-])c(Cl)cc1F	204 °C
COC1CCC2C3CCC4CC(Cl)CCC4(C)C3CCC12C (stereo not given)	151 to 154 °C
CC1(CO)C(=O)N(c2ccc(C#N)c(C(F)(F)F)c2)C(=O)N1CC#N (stereo not given)	171 °C
O=C(Nc1cc(F)cc(F)c1)c1ccccn1	111 to 113 °C
Cc1ncc2n1C(=O)N(C1CCN(C(=O)CCS(=O)(=O)c3ccc4cc(Cl)ccc4c3)CC1)C2	195 °C
O=c1[nH]c2ccc(Br)cc2cc1Cc1ccccc1	263 °C
CSc1ccc2c(c1)NC(=O)C2	179 to 180 °C
COC(Cc1ccc(OCCN(C)c2nc3ccccc3o2)cc1)C(=O)O (stereo not given)	121 to 123 °C
CN(CCC#N)CCc1coc(-c2cc(C(C)(C)C)c(O)c(C(C)(C)C)c2)n1	104 to 105 °C
CCOC(=O)CCc1ccc(OCC(=O)N(CC)CC)cc1Oc1ncc(C(F)(F)F)cc1Cl	88.5 to 89 °C
CC(C)N(C(=O)n1oc(=O)[nH]c1=O)c1ccc(F)cc1	94 to 95 °C
CC(=O)OCCCNC(=O)CCC(NC(=O)C=Cc1ccco1)C(=O)NCCCOC(C)=O (stereo not given)	132 to 134 °C
CC(C)(C)CC(=O)NCc1cccs1	83 to 84 °C
CS(=O)(=O)c1ccc(OCCO)cc1	89 to 90 °C
O=C1CSCN1CCCCN1CCN(c2ccc3ccccc3n2)CC1	105 to 107 °C
CC(=O)OC1=CC2=CCC3C4CC(C)C(O)(CC(=O)OC(=O)C(C)(C)C)C4(C)CC4OC43C2(C)C=C1 (stereo not given)	108 to 120 °C
CCOC(=O)Cc1sc(Sc2cccc(C(=O)O)n2)nc1C	123 to 125 °C
COc1ccc(Br)cc1CC#N	60.5 to 60.9 °C
CCOC(=O)C(=CNNc1c(Cl)cc(Cl)cc1Cl)C(=O)OCC	92 °C
CCOC(=O)c1ccc(N(C(=O)OC(C)(C)C)N(C)C(C)=O)cc1	82 °C
CC(=O)OCS(=O)(=O)c1c(F)cc(-c2c(-c3ccccc3)noc2C)cc1F	165 to 166 °C
CN1CCC(Oc2ccccc2C(N)=O)C1 (stereo not given)	116 to 118 °C
CC(C)(C)c1cc(SCCO)cc(C(C)(C)C)c1O	66 °C
COC(=O)c1ccc(/C=C/c2ccc(SC)cc2)nc1	157 to 159 °C

Next, values leading:

melting point	Compound
115 to 118 °C	O=C(COc1ccc2ccccc2c1)NC(Cc1ccccc1)C(=O)CSCc1ccco1 (stereo not given)
104 to 106 °C	CN1CCN(c2nn(C(=O)c3ccccc3)c3ccccc23)CC1
176 to 177 °C	CC(c1ccc2c(c1)N(C)c1cc(Cl)ccc1S2)N(O)C(N)=O (stereo not given)
82 °C	Cn1nc(-c2cc(N)c(F)cc2F)c(Cl)c1C(F)(F)F
298 to 299 °C	O=C(NC(Cc1ccc(OCc2ccccc2)cc1)C(=O)O)c1cc2cc(-c3ccc(Cl)cc3)ccc2[nH]c1=O (stereo not given)
113 to 115 °C	COC(=O)c1ccc(OCC(O)c2ccc3c(c2)C(C)(C)CCS3)cc1O (stereo not given)
112 to 114 °C	CCOC(=O)Nc1ccc(CCBr)c(Cl)c1
78 to 81 °C	CCCCN(CCCC)CCCOc1ccc(-c2cn3cccc(C)c3n2)c(C)c1
207 °C	O=[N+]([O-])c1ccc(Oc2c(Cl)cc(C(F)(F)F)cc2Cl)cc1SCc1ccccc1
134 to 138 °C	COCCOc1cccc(-c2ccc(C3CCN(S(=O)(=O)C(C)(C)C(=O)NO)CC3)cc2C)n1
208 to 210 °C	O=C(O)CCCC1CCCNC1 (stereo not given)
136 to 137 °C	O=c1oc(-c2cccc(Cl)c2)cc(O)c1SCc1ccccc1
181 to 183 °C	Nc1nc(NC2CCC2)c2ncn(C3C=CC(CO)C3)c2n1 (stereo not given)
92 to 94 °C	CN1CC(CCCl)Oc2ccc(Br)cc2C1=O (stereo not given)
104 to 106 °C	CC(C)(C)OC(=O)N1[C@@H](CC2CCCCC2)[C@H](CC2SCCCS2)OC1(C)C
111 to 114 °C	O=C(CCCN1CCC(=C(c2ccccc2)c2ccccc2)CC1)c1ccc(F)cc1
> 250 °C	Oc1cc(O)n2nc(-c3ccc(F)cc3)c(-c3ccncc3)c2n1
204 to 205 °C	O=C(C=Cc1cccc(-c2ccccc2)c1)Nc1ccc(CP2(=O)OCCCO2)cc1
57 to 58 °C	Clc1nccnc1OCCOc1cccc(Br)c1
242 to 245 °C	CC(C)=NNc1ccnc2c(NC(=O)c3c(Cl)cccc3Cl)cc(C)cc12
192 °C	CC1=C(Cl)C(c2ccccc2)C([N+](=O)[O-])=C(C)N1 (stereo not given)
259 to 261 °C	O=C(c1ccccc1C(c1ccc(O)cc1)c1ccc(O)cc1)N1CCSCC1
198 to 203 °C	O=C1N(N2CCOCC2)c2ccccc2C1(Cc1ccnc(F)c1)Cc1ccnc(F)c1

melting point	Compound
250 to 252 °C	O=C(Cc1ccc2c(c1)CCC(NS(=O)(=O)c1cccs1)C2)Nc1ccc(C(=O)O)cc1 (stereo not given)
123 to 127 °C	CCC1CC2C3CCC4=C(CCC(=O)C4)C3=CCC2(CC)C1OC(C)=O (stereo not given)
192 to 193 °C	COc1ccc(NC(=O)C(C#N)C(=O)c2cccn2C)cc1 (stereo not given)
218 to 220 °C	CC(C)(c1ccc2ncccc2c1)n1nnc2ccc(-c3cn[nH]c3)nc21
127 to 130 °C	CC(=O)NC[C@H]1CN(c2ccc3c(c2)CC(C)N3CCF)C(=O)O1 (stereo not given in full)
92 to 93 °C	FC(F)(F)c1cccc(C(CC2=NCCN2)c2ccc3ccccc3n2)c1 (stereo not given)
168 to 170 °C	Cc1nn(-c2c(Cl)cc(C(F)(F)F)cc2Cl)c(NCC(=O)O)c1SC(F)(F)F
60 to 70 °C	CC1(C)C=Cc2cc(C(=O)NCCO)ccc2O1
88 to 90 °C	Cc1ccc(COc2ccccc2C=C2CCCCC2N2CCC2)cc1 (stereo not given)
154 to 156 °C	Cc1cc(C(F)(C(F)(F)F)C(F)(F)F)ccc1N1C(=O)c2cccc(Cl)c2C1NC(C)(C)CS(C)(=O)=O (stereo not given)
250 to 252 °C	O=C(O)c1cccc(Nc2nc(Oc3ccccc3)nc(Oc3ccccc3Cl)n2)c1
150 to 151 °C	CCC1(CC)NC(=O)Oc2ccc(-c3cccc(Cl)c3)cc21
145 °C	CCS(=O)(=O)c1nnc(N(C(C)=O)C(=O)N(C)C)s1
152 to 153 °C	COc1ccc(Cc2ccc(C(=O)O)cc2)cc1
127 to 129 °C	O=C(O)C1CCc2c(Cc3ccc(Cl)cc3)cccc21 (stereo not given)
86 to 88 °C	COc1ccc(C(F)(F)F)cc1Nc1ccc(C(F)(F)F)cc1[N+](=O)[O-]
154 °C	COc1cc2c(cc1OCc1ccccc1)C1Cc3c(Cl)cc(OC)c(OCCO)c3CN1CC2 (stereo not given)
249 °C	CC1(C)CCc2c(sc3cc(OS(=O)(=O)Cc4ccccc4OC(F)(F)F)ccc3c2=O)C1
149 to 151 °C	CCOC(=O)Cn1c2cccccc-2c(C#N)c1=O
264 °C	O=C1c2nccnc2C(Cl)N1c1ccc2ccc(Cl)nc2n1 (stereo not given)
195 to 196 °C	O=[N+]([O-])c1cc(I)ccc1Nc1cccc(-c2ccccn2)c1
164 to 165 °C	COc1cc(C=O)ccc1OCc1nc(-c2cccnc2)oc1C
227 to 233 °C	Cc1cccc2c1N(CC(=O)C1CC1)C(=O)C(NC(=O)Nc1cccc(-c3nnn[nH]3)c1)N=C2C1CCCCC1 (stereo not given)

Reference: a melting point compilation (Tetko et al.; mined from patent text by program, amines drawn as free bases though some values may be those of a salt)
